# Measured values from ChEMBL document CHEMBL5465560, “Selectivity Literature for EUbOPEN Chemogenomic Library” (2024).
# Where a chain is given by its changes, count along the chain named.
# How the values were obtained:
# Settings in all cases: at 10 µM
# [1] = target: Receptor-type tyrosine-protein kinase FLT3 (Homo sapiens) (UniProt P36888); assay: (§1) Selectivity interaction (KinomeScan (DiscoverX)) EUB0000666a FLT3
# [2] = test system: T1, Receptor-type tyrosine-protein kinase FLT3 (Homo sapiens), P36888 [D835H]; assay: as §1
# T1 sequence (whole entry): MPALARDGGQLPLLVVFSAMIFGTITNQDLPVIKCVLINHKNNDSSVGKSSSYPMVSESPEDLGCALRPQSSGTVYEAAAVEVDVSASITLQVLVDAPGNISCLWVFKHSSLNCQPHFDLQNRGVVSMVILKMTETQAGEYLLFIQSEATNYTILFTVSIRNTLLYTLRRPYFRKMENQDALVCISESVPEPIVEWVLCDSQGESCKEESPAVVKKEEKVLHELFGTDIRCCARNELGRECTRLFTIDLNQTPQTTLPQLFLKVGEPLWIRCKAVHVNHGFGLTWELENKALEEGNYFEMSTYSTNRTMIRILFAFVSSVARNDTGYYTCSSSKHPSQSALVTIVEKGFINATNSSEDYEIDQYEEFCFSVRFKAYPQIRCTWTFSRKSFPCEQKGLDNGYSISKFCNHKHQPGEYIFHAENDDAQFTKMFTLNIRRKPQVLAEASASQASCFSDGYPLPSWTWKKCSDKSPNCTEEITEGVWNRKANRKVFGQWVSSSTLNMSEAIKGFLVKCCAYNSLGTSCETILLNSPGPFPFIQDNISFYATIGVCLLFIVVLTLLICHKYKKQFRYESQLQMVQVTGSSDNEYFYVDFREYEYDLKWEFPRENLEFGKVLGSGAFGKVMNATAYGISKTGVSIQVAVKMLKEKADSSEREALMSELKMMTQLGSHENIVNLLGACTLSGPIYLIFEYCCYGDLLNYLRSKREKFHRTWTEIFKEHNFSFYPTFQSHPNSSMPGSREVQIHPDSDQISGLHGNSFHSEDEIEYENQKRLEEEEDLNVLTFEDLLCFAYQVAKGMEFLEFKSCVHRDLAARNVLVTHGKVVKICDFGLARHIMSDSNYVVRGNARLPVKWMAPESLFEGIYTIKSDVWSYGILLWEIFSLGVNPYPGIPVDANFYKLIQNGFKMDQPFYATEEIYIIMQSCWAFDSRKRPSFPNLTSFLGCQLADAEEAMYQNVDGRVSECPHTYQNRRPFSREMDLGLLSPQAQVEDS
# [3] = test system: T2, Receptor-type tyrosine-protein kinase FLT3 (Homo sapiens), P36888 [D835Y]; assay: as §1
# T2 sequence (whole entry): T1 sequence (whole entry) with H835Y
# [4] = test system: T3, Receptor-type tyrosine-protein kinase FLT3 (Homo sapiens), P36888 [N841I]; assay: as §1
# T3 sequence (whole entry): T1 sequence (whole entry) with H835D, N841I
# [5] = test system: Receptor-type tyrosine-protein kinase FLT3 (Homo sapiens), P36888 [UNDEFINED MUTATION]; assay: as §1
smiles,measurement,setting,value
O=C(NOC[C@H](O)CO)c1ccc(F)c(F)c1Nc1ccc(I)cc1F,% of control,[1],82%
same,% of control,[2],87%
same,% of control,[3],100%
same,% of control,[4],78%
same,% of control,[5],100%
